Reference: US6989375B2, “Enhanced expression of transgenes” (priority 1996, dated 2006)

System: H1299 cells
Assay: β-gal expression by X-gal staining after Ad/CMV/β-gal infection of agent-treated cells
Type: cell-based, human
Conditions: for Enhancement of β-gal gene expression after treatment with antineoplastic agent: wide range of drug concentrations, 24 h, infected with Ad/CMV/β-gal 48 hours after drug removal
Protocol: Gene Delivery Protocol: In vitro gene delivery was performed by incubating cells in six-well plates (Falcon Plastics, Lincoln Park, N.J.) for two hours with Adv/CMV/β-gal in appropriate medium supplemented with 2% FCS. The multiplicity of infection (MOI: number of viral particles per target cell) was based on cell counts of untreated wells. Fresh, complete medium with the appropriate concentration of FCS was then added to the wells at the end of the infection period and cells were then incubated for 20 hours at 37° C., 5% CO2. After washing the cells with ice cold PBS, the cells were fixed with ice-cold 1.25% glutaraldehyde and stained with X-gal (5-bromo-4-chloro-3-indolyl-β-d-galactoside; Gibco BRL) as previously described (MacGregor et al., 1987). The transduction efficiency by Adv/CMV/β-gal was determined by the percentage of positive stained cells (blue) for β-galactosidase activity (1000 cells counted per well).
Time Course and Dose Response: To determine the time course of enhancement, H1299 and H460 cells were seeded in 6-well plates (2×10^5 cells/2 mls/well). After an overnight incubation period (37° C., 5% CO2), the initial medium was replaced with freshly prepared media (2 ml) containing 0.062 μg/ml CDDP (Sigma Chemicals, St. Louis, Mo.) (CDDP was prepared fresh by dissolving in distilled water) and the cells were then incubated for 24 hours at 37° C., with 5% CO2. CDDP-treated cells were then washed twice with PBS and subsequently infected with Ad/CMV/β-gal (MOI=1 for H1299 and MOI=5 for H460) on days 0, 1, 2, 3, 4, 5 or 6 following CDDP removal, to determine the time point at which maximal enhancement of expression was occurring. To establish the dose of CDDP needed to produce maximum enhancement, the cells were treated with different concentrations of CDDP (serial, 1:4 dilutions, ranging from 4 μg/ml to 0.0002 μg/ml, 5 ml per 60 mm dish) for 24 hours and subsequently incubated with Ad/CMV/β-gal 48 hours after removal of CDDP. To study if exposure of malignant cells to different classes of antineoplastic agents would lead to a similar elevation of gene expression, H1299 cells were treated with vincristine (Eli Lilly and Co, Indianapolis, Ind.), methotrexate (Lederle Pharmaceuticals, Pearl River, N.Y.), 5-fluorouracil (SoloPak Laboratories, Elk Grove Village, Ill.), epotoside (Bristol Laboratories, Princeton, N.J.) and transplatin (the isomer of CDDP that has no anticancer activity, Sigma Chemical, St. Louis, Mo.) in the similar fashion as CDDP treatment and then infected with Ad/CMV/β-gal 48 hours after removal of drug-containing media. H1299 cells were treated with 2, 4, 8, or 16 Grey (Gy) of ionizing irradiation and then similarly infected 72 hours after irradiation. Untreated cells that were similarly infected, served as controls.

| SMILES | Enhancement of β-gal gene expression after treatment with antineoplastic agent | Enhancement of β-gal expression (FIG. 3) (drugs at 0.062 μg/ml or irradiated with 8 Greys, stained 24 hrs after infection) |
| --- | --- | --- |
| O=c1[nH]cc(F)c(=O)[nH]1 [5-fluorouracil] | did not result in enhanced gene expression | – |
| COc1cc([C@@H]2c3cc4c(cc3[C@@H](O[C@@H]3O[C@@H]5CO[C@@H](C)O[C@H]5[C@H](O)[C@H]3O)[C@H]3COC(=O)[C@H]23)OCO4)cc(OC)c1O [VP-16, etoposide] | enhanced gene expression | Enhancement of β-gal expression was observed |
| CN(Cc1cnc2nc(N)nc(N)c2n1)c1ccc(C(=O)N[C@@H](CCC(=O)O)C(=O)O)cc1 [methotrexate] | did not result in enhanced gene expression | – |
| N.N.[Cl][Pt+2][Cl] [transplatinum] | did not result in enhanced gene expression | – |
| CC[C@]1(O)C[C@H]2CN(CCc3c([nH]c4ccccc34)[C@@](C(=O)OC)(c3cc4c(cc3OC)N(C=O)[C@H]3[C@@](O)(C(=O)OC)[C@H](OC(C)=O)[C@]5(CC)C=CCN6CC[C@]43[C@@H]65)C2)C1 [vincristine] | did not result in enhanced gene expression | – |
